Source: US11730716B2, “Compounds for treating ophthalmic diseases and disorders” (priority 2014, dated 2023)

Key:
[1] = system: Ad5 McEwen; assay: Experimental adenoviral ocular infection (Ad5/NZW rabbit ocular model), eye drops, plaque assay on A549 monolayers; type: in vivo
Method: 25 New Zealand White rabbits were inoculated in both eyes following general anesthesia with ketamine and xylazine, topical anesthesia with proparacaine, and corneal scarification (12 cross-hatched strokes of a #25 needle) with 50 μl of 3.0×10^7 PFU/ml (1.5×10^6 PFU/eye) of Ad5 McEwen (Stock 1/17/08, 4.08×10^8 PFU/ml). Eyes were closed and gently rubbed for 5 seconds to ensure contact of the virus on all ocular surfaces.
At least 3 h after inoculation, all eyes were cultured for virus. Following topical anesthesia with proparacaine, a single cotton-tipped swab was placed into the lower fornix of each eye, rolled over the cornea into the upper fornix to recover adenovirus from the tear film and corneal and conjunctival surfaces. The swabs from each eye were placed individually into tubes containing 1 ml of outgrowth media and were frozen at −70° C. pending plaque assay.
On day 1, the rabbits were divided into 5 treatment groups outlined in the chart below. The five treatment groups consisted of a vehicle control, 0.16% PP-001 8 times, 6 times, and 4 times daily for 10 days, and the positive antiviral control 0.5% cidofovir (CDV).
Begin of treatment on day 1. Drops were administered with at least a 45 min interval between drops. All eyes from all groups were cultured for virus on days 1, 3, 4, 5, 7, 9, 11, and 14 PI at least 1 h after the final doses of the treatments described above. At various times during the course of the experiment, Ad5 titers were determined on A549 cell monolayers using standard plaque assays. The ocular cultures to be titered were thawed, diluted (1:10) and inoculated onto A549 monolayers. The virus was adsorbed for 3 h. Following adsorption, 1 ml of media plus 0.5% methylcellulose was added to each well, and the plates were incubated at 37° C. in a 5% […] atmosphere. After 7 days incubation, the cells were stained with 0.5% gentian violet, and the number of plaques were counted under a dissecting microscope (25×). The viral titers were then calculated, and expressed as plaque-forming units per milliliter (PFU/ml). […]

[2] = in vivo; design: species or system Dutch Belted rabbits; settings: male, Dutch Belted, rabbit, topical or ocular; for half-life: t1/2
Method: 36 male Dutch Belted rabbits were divided in […]: 16 animals each in group 1 and 2 received 0.0625 mg and 0.125 mg PP-001 per eye, 4 animals were administered with dose vehicle (sucrose solution) only. At designated time points animals were sacrificed and vitreous humor, retina, and choroid were collected from both eyes of each animal and weighed. Samples were analysed for PP-001 concentration using a specific HPLC/MS/MS analytical method and PK parameters were calculated with Phoenix WinNonlin software (v6.3) using a non-compartmental model with sparse sampling.
Animals were anesthetized with an intramuscular injection of ketamine hydrochloride (30 mg/kg) and xylazine (5 mg/kg) for the injection procedure.
The study director performed the IVT injection in both eyes (OU). Topical ocular anesthetics were used per ASI SOPs.
The eyes and surrounding tissues were cleaned and disinfected with 2% betadine ophthalmic solution and then rinsed with basic salt solution (BSS). Using a 30 gauge needle with length no greater than ⅝ inch, injections were made 5 to 7 mm from the limbus (where the cornea meets the sclera). Once inserted, the PP-001 or vehicle control was injected at a volume of 25 μL per eye. The needle was then removed and the eye rinsed with BSS.
Vitreous humor and choroid/sclera/retina were collected from both eyes of each animal at the designated time point and analyzed for PP-001 concentration using a specific HPLC/MS/MS analytical method.

[3] = system: retinal and choroidal tissue; assay: Tolerability of intravitreal injections of PP-001 solutions in Dutch Belted rabbits; type: in vivo; settings: intravitreal 0.0625 or 0.125 mg/eye
[4] = system: vascular endothelial growth factor (VEGF); assay: Cellular protein expression of VEGF in antigen-stimulated rat lymph node/T cell cultures (Luminex multiplex cytokine assay); type: cell-based; settings: 3 μM, 10 μM and 30 μM; supernatants after 24 h
Method: Rats were immunized with 25 μg of the respective peptide as previously described.
After 10 to 12 days popliteal, inguinal and para-aortal lymph nodes (LN) were collected, single cell suspensions were stimulated with the respective antigen peptides at a final concentration of 10 μg/ml RPMI1640, supplemented with Penicillin/Streptomycin, L-Glutamine, essential and non-essential amino acids (all 4 from PAA, Colebee, Germany), 12.5 μM […] and 1% normal rat serum. After 3 days the cells were expanded in culture medium supplemented with 10% spleen conditioned medium (from Concanavalin A-stimulated rat spleen cells) and 5% fetal calf serum (FCS) for 4 days.
For restimulation 0.5-2×10^6 T cells/ml were incubated with irradiated (8 Gy) rat thymocytes (3-10 fold more than T cells) as antigen-presenting cells (APC) and 10 μg/ml of the specific antigen peptide in culture medium as described for the first stimulation. After two days of culturing cells were expanded with conditioned medium for 5 days as described above, followed by another cycle of restimulation and expansion. […]

[5] = system: dry eye syndrome; type: in vivo
Method: The aim of the study was to evaluate the tolerability and therapeutic potential of PP-001 in a murine model of dry eye syndrome.
Dry eye symptoms were induced in forty (40) pigmented C57BL/6N mice by exposing them to a controlled environment (relative humidity<25%, air-flow 15 L/min, temperature 20-22° C.) and systemic scopolamine administration (0.5 mg/72 h) for 10 days.
Mice were randomized into 4 groups of 10 animals and treated with PP-001, Restasis®, placebo and the forth group remained untreated.
Tear production and corneal defects were evaluated on days 3, 7 and 10 using phenol red thread and fluorescence staining in each of the four groups.
Preparation of Eye Drop Solutions:
Placebo eye drops: A solution containing 20 mg/ml polyvinylpyrrolidone, 10 mg/ml glycerol 85%, 2 mg/ml hydroxypropyl methylcellulose in sodium phosphate buffer adjusted to pH 7.
PP-001 eye drops: A solution containing 1.6 mg/ml PP-001, 20 mg/ml polyvinylpyrrolidone, 10 mg/ml glycerol 85%, 2 mg/ml hydroxypropyl methylcellulose in sodium phosphate buffer adjusted to pH 7.
Positive control: Restasis® (cyclosporine ophthalmic emulsion from Allergan)

[6] = system: choroidal neovascularization; assay: Inhibition of choroidal neovascularization in PDSAg-induced EAU rat model; type: in vivo, Lewis rats
From the text: Choroidal neovascularization is a known feature of posterior uveitis and a major cause of retinal destruction and loss of vision. To monitor the effect of PP-001 on neovascularization, the EAU model in Lewis rats was used. In Lewis rats the disease was induced by immunizing animals with retinal antigen PDSAg, a 14mer derived from S—Ag. Immunization with that peptide emulsified in Complete Freund's Adjuvant (CFA) leads to severe inflammation of the anterior chamber of the eyes and destruction of the retinal architecture and choroidal neovascularization Induction with PDSAg causes a monophasic disease with first clinical signs of inflammation observed between day 8 and 12 after immunization and reaching the peak of disease between day 14 and 18. Inflammation in the anterior chamber subsides until day 21 to 22 post immunization. Long term effects such as choroidal neovascularization are seen at the later stages of the disease after the inflammation of the anterior chamber has subsided. 18 Lewis rats were immunized with PDSAg. Starting at the beginning of the disease (day 9 post immunization) 6 animals were treated with PP-001 and 6 animals were treated with vehicle control. […] Post day 25 experiment was stopped and 12 eyes for each treatment group were histological analyzed for the presence of choroidal neovascularizations.

[7] = system: experimental autoimmune uveitis (EAU); assay: Prevention of relapses in the experimental autoimmune uveitis (EAU) rat model, R14-induced, intravitreal injection; type: in vivo, Lewis rats
From the text: Experimental autoimmune uveitis (EAU) in Lewis rats is a model for human endogenous uveitis. The disease is mediated by CD4+ T lymphocytes of the T helper 1 (Th1) and Th17 subtypes. In Lewis rats the disease was induced by immunizing animals with retinal antigens such as interphotoreceptor retiniod-binding protein (IRBP) and adjuvant. IRBP is also considered to be an autoantigen in humans. Peptide R14, a 23mer from IRBP, is the most pathogenic epitope for Lewis rats. Immunization with these peptides emulsified in Complete Freund's Adjuvant (CFA) leads to severe inflammation of the anterior chamber of the eyes and destruction of the retinal architecture. R14 causes a relapsing-remitting disease with an early onset (about day 7), the peak of EAU between day 10 to 14 and the remission around day 17/18. 20 rats were immunized with 15 μg IRBP-peptide R14 emulsified in complete Freund's adjuvant. After primary disease, PP-001 was injected intravitreally at day 18 (6 μl=3 μg PP-001) in both eyes of 10 animals. One eye in this group dropped out because of penetrating the eye during injection. 10 animals received 6 μl PBS intravitreally in both eyes as control group. Clinical grade of inflammation in the anterior chamber was determined daily.

[8] = system: intraocular tissues; assay: Local tolerability of intravitreal injections of PP-001 in rat eyes; type: in vivo; settings: high dose PP-001 (150 μg/ml, 10 μl intravitreal); 8 days
Method: For this purpose, three different doses of PP-001, dissolved in phosphate-buffered saline (PBS) and a vehicle control with PBS only were injected into the posterior chamber (=vitreous) of rat eyes. The eyes (anterior chamber) were examined daily with an ophthalmoscope and after 8 days the experiment was terminated, and the eyes processed for histology (cryosections).
8 Lewis rats (age 7-8 weeks) were anesthetized using 0.5 mg/kg medetomidine s.c. Additional topical anesthesia with 0.4% oxybuprocaine eye drops was applied. After intraocular injection sedation was antagonized with an s.c. injection of 2.5 mg/kg atipamezol.
10 μl of solution were injected into the vitreous of both eyes with a 30 G needle, controlled under an operation microscope. The perpendicular injection is penetrating the […] and should neither touch the lens or the retina. After injection an antibiotic ointment was applied to the eyes to avoid infections.
PP-001 was dissolved in PBS and applied intravitreally in 3 different concentrations.
Group 1, Rat 1-1 and 1-2: 10 μl PBS (vehicle control)

O=C(Nc1c(F)c(F)c(-c2cccc(OC(F)(F)F)c2)c(F)c1F)c1ccsc1C(=O)O [PP-001, 3-(2,3,5,6-tetrafluoro-3′-trifluoromethoxy-biphenyl-4-ylcarbamoyl)-thiophene-2-carboxylic acid]
dose response of antiviral efficacy ([1]; 0.16% PP-001 8 times and 6 times per day vs 4 times per day, 10 days): more efficacious than 0.16% PP-001 instilled 4 times per day for 10 days
safety as topical antiviral agent ([1]; 0.16% PP-001 eye drops, 4-8 times daily for 10 days): safe
antiviral efficacy (topical) ([1]; 0.16% PP-001 eye drops, Ad5 titers PFU/ml): efficacious
Cmax ([2]; 0.0625 mg): 33.2 µg/g
t1/2 ([2]; 0.0625 mg): 14.5 h
Cmax ([2]; 0.0625 mg, Cmax): 25.7 µg/g
half-life ([2]; 0.0625 mg): 14.3 h
Cmax ([2]; 0.125 mg): 56.9 µg/g
t1/2 ([2]; 0.125 mg): 13.1 h
Cmax ([2]; 0.125 mg, Cmax): 61.5 µg/g
half-life ([2]; 0.125 mg): 21.4 h
effect on the retinal and choroidal tissue [3]: did not have any significant effect
protein expression of VEGF [4]: reduced
corneal staining compared to placebo treatment ([5]; Day 10): reduced
corneal staining in comparison to the induced untreated group ([5]; Day 10, multiple instillations): reduced significantly
corneal surface damage ([5]; multiple topical administrations of PP-001 1.6 mg/mL): reduced corneal surface damage comparable to Restasis®
reduction of number of choroidal neovascularizations (factor) ([6]; treatment started at beginning of uveitis (day 9 post immunization), vs vehicle, p<0.005): 3
mean number of choroidal neovascularizations ([6]; treatment started at day 15 (peak of disease), vehicle mean 6, p<0.05): 3
time to the appearance of the first relapse ([7]; single intravitreal injection at day 18, 3 μg per eye, compared to placebo group): delayed
reduction of the number of relapses ([7]; single intravitreal injection at day 18, 6 μl = 3 μg per eye, vs PBS control): > 50%
eyes completely normal [8]: 2 of 4
